Data from patent US8691768B2, “Methods of determining delta opioid receptor subtypes” (The Regents of the University of California, priority 2008, dated 2014).
Counter-ions that a name gives are not always drawn. Like-named read-outs stand apart in the source and are kept apart here.

Key:
[1] = test system: Lewis rats, ventral tegmental area (VTA); assay: Ethanol self-administration (two-bottle continuous access) after microinjection into the VTA; assay type: in vivo; conditions: 0.2 mM microinjected into VTA
Procedure: (§1) Male Lewis rats (Harlan Laboratories, Indianapolis, Ind.) weighing between 275-300 g were individually housed in a temperature controlled colony room (21° C.) maintained on a reversed light/dark cycle 12L:12D cycle (lights off at 10 A.M., lights on at 10 P.M.). All experiments were performed during the dark portion of the cycle. Food and water was provided ad libitum.
(§2) Ethanol was administered via a two-bottle continuous access, free-choice paradigm in which one bottle contained 10% ETOH (v/v) and the other bottle contained water. Sucrose was never added to the ethanol solution. The amount of ETOH and water consumed was measured at the same time daily (10 A.M.). […] Animals were weighed daily. Bottles were identical and their positions were counterbalanced and rotated daily. Change in drinking was calculated by subtracting the amount of drinking (mg/kg) on the day following treatment from the amount of drinking (mg/kg) on the day prior to treatment.
Animals were anesthetized and maintained on isoflurane (0.5 l/min) as needed for the duration of surgery. Animals were placed in a stereotaxic frame and were implanted with bilateral 26-gauge stainless steel chronic guide cannulas (Plastincs One, Roanoke, Va.) into the VTA (AP, −5.8; ML, ±0.5; DV, −7.0) based on the atlas of Paxinos and Watson (1997, The rat brain in sterotaxic coordinates, compact, Ed 3. San Diego: Academic). Cannulas were secured to the skull with dental cement. At the end of the surgical procedure, animals were treated with penicillin and topical antibiotics. A stainless steel dummy cannula (Plastics One) was inserted into each guide cannula and remained in place when the guide cannulas were not in use. Animals were allowed a 1 week recovery period before behavioral testing.
Each injection was made using a 1 μl syringe (Hamilton, Reno, Nev.) attached to 20 cm of PE 50 tubing connected to a 33-gauge injection cannula (Plastics One). Microinjections of 0.5 μl volumes were given at a rate of 0.5 μl/min using a syringe pump (kd Scientific, Hollister, Mass.) into each side of the VTA, except for bicuculline injections, where 0.25 μl was injected per side. Injection cannulas extended 2 mm beyond guide cannulas and were left in place for 1 min following microinjections to minimize the backflow of drug solution. In addition to drug microinjections, physiological saline microinjections were made in every rat to measure the effect of the injection manipulation alone on drinking Drug injections were randomized and counterbalanced. Change in drinking due to drug microinjections was calculated by comparing both the previous day's consumption (“baseline”) and to saline injection. At the conclusion of the experiment, animals were anesthetized with pentobarbital and perfused intracardially through the ascending aorta with 0.1 M phosphate buffered saline followed by 10% formalin. Brains were sectioned coronally at 50 μm, mounted and stained with cresyl violet. Only animals with confirmed injection sites within the VTA were included. No behavioral differences were observed between animals with anterior compared with posterior cannula placements.
For behavioral experiments, DPDPE (10mM; Sigma, St. Louis, Mo.), TIPP-ψ (5 μM; NIDA, Bethesda, Md.), Bicuculline (1 mM; Sigma), DAMGO (0.2 mM; Sigma), and CTOP (10 mM; Tocris, Ellisville, Mo.) were prepared in physiological saline for microinjection into the VTA. For electrophysiology, all drugs were applied by bath perfusion. Stock solutions were made and diluted in artificial CSF immediately before application. All chemicals were obtained from Sigma or Tocris except TIPP-ψ, which was acquired from NIDA.
Results are presented as mean±SEM where appropriate. For behavioral data, drinking was analyzed using 24 h time points. Raw drinking data were used for paired Student's t test comparisons probing drug effects on drinking compared with baseline or saline injections, a more conservative comparison than analyzing normalized data. […]

C57BL/6 mice [2] = assay: Limited access 2-bottle choice drinking paradigm (water or 10% ethanol); assay type: in vivo; conditions: for ethanol consumption (drinking behavior): 5 mg/kg s.c. alone, 4 hour 2-bottle choice
Procedure: Male C57BL/6 mice (20-23 g, Taconic) were individually housed in ventilated PLEXIGLAS® cages at ambient temperature (21° C.) in a room maintained on a reversed 12L:12D cycle (lights off at 10.00, lights on at 22.00). Food and water was provided ad libitum. The mice were given time to acclimatize to the individual housing conditions and reverse light cycle before the start of the experiments. Mice were weighed weekly. All procedures were pre-approved by the Gallo Center Institutional Animal Care and Use Committee and were in accordance with National Institutes of Health Guide for the Care and Use of Laboratory Animal.
From Monday through Friday, mice were presented with a 2-bottle choice (water or 10% ethanol) for a 4 hour period (11.00-15.00) while in the dark cycle. Outside the 2-bottle choice period, all mice had unlimited access to water. All fluids were presented in 100-ml graduated glass cylinders with stainless-steel drinking spouts inserted through two grommets in front of the cage. Bottles were weighed to the nearest decigram (0.1 g) at the start and end of the 2-bottle choice period. The positions of the tubes containing water and ethanol were reversed daily to limit the effects of positional preference. Mice (9 per group) were injected with drugs subcutaneously (s.c.) on Friday 30 minutes before the start of the 2-bottle choice period.
(§3) Ethanol and sucrose solutions were prepared in tap water using 95% (vol/vol) ethanol (Gold Shield Chemical Co., Hayward, Calif., USA). Naltriben mesylate (NTB), 7-benzylidenenaltrexone maleate (BNTX) were purchased from Tocris (MO, USA). TAN-67 dihydrobromide, naltrindole hydrochloride (NTI) and naltrexone hydrochloride (NTX) were from Sigma-Aldrich (MO, USA). All compounds were dissolved in saline, with the exception of BNTX and NTB, which were dissolved in 5% DMSO. All drugs were made up immediately prior to injection and were administered s.c. at a volume of 10 ml/kg.
Baseline values were determined by taking the average of the consumption over the three days prior to injection. Statistical analysis was performed using Prism software (GraphPad, San Diego, Calif.). Significance was determined by means of one-way ANOVA or two-way ANOVA (repeated measures). A post-hoc Newman-Keuls (one-way ANOVA) or Bonferroni (two-way ANOVA) test was used when a significant overall effect was found (p<0.05). (*, p<0.05; **, p<0.01; ***, p<0.001).

[3] = clinical studies; cited from earlier work
[4] = numerous animal studies; cited from earlier work
C57BL/6 mice [5] = assay: Sucrose intake (natural reward); conditions: mouse, in vivo
Procedure: as §3

C57BL/6 mice [6] = assay: Locomotor activity assay; assay type: in vivo; conditions: assayed 30 minutes after injection for 4 hours
Procedure: To determine the effect of DOP-R subtype-selective drugs on mouse locomotion, the following locomotor activity assay was performed. On the testing day, mice (n=8) were habituated to the locomotor boxes for 30 minutes prior to the behavioral assay. Mice were injected s.c. with vehicle (saline or 5% DMSO), 25 mg/kg TAN-67 or 6 mg/kg NTB and placed back in the locomotor boxes. Locomotor activity was assayed 30 minutes after injection for 4 hours using Accuscan Digipro activity monitors (Accuscan, Columbus, Ohio). All mice were tested during their light phase between the hours of 9.00 and 14.00. Mice were placed into custom-made acrylic boxes that were 21×21 cm and 28 cm tall. One acrylic box was used per single Accuscan monitor (Accuscan). Activity monitors were themselves housed inside sound-attenuating chambers (Med-Associates, St Albans, Vt.) equipped with lights and fans, both of which were turned on during the testing session. To eliminate variability due to handling and novelty, on the two days before the testing day, mice were habituated to the locomotor boxes for 30 minutes injected with saline and placed in the locomotor box for an additional 30 minutes.

[7] = Rewarding effect of TAN-67 (Example 4, method not given); assay type: in vivo; conditions: therapeutically effective dose
[8] = test system: chronically drinking rats; assay: Drinking of chronically drinking rats after systemic administration; assay type: in vivo
Procedure: as §1, §2

DOR = assay: Immunocytochemistry of DOR expression in VTA tissue; assay type: in vivo, Lewis rats; conditions: chronic treatment, once daily 0.5 mg/kg for 20 days
Procedure: Materials and Methods: Male Lewis rats (250-300 g) were housed as in Example 8. In the first part of the experiment, rats received once daily injections of 0.5 mg/kg morphine for 20 days, after which they were sacrificed and the VTA tissue was examined for DOR expression. Standard immunocytochemical methods were used with a DOR-targeted antibody (SC9111) purchased from Santa Cruz Biotechnology, Inc. For electrophysiology experiments, rats received twice daily injections, 10 hours apart, of 5 mg/kg morphine IP for 7 days.

[9] = test system: GABAA IPSCs in VTA neurons; assay: Slice electrophysiology, whole-cell patch-clamp of GABAA IPSCs in VTA neurons; assay type: cell-based, Lewis rats; conditions: animals treated with 5 mg/kg morphine IP twice daily for 7 days
[10] = biological target: delta opioid receptor (DOP-R) (rat) (UniProt P33533); assay: cell-based or functional assay
delta opioid receptor (DOP-R) (rat), sequence (P33533 whole entry, stated change not applied): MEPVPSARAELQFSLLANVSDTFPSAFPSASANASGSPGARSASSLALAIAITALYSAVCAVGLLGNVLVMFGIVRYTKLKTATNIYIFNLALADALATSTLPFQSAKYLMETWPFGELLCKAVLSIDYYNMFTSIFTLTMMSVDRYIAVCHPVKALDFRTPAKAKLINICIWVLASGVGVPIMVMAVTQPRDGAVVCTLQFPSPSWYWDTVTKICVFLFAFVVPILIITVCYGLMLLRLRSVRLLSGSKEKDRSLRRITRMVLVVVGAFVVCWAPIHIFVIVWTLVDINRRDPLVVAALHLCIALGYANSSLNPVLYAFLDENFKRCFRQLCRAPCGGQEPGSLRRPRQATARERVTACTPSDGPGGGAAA

## C[C@@H](NC(=O)[C@@H](N)Cc1ccc(O)cc1)C(=O)NCC(=O)N(C)[C@@H](Cc1ccccc1)C(=O)NCCO [DAMGO]
[1]
  drinking (EtOH): did not affect drinking

## Oc1ccc2c3c1O[C@H]1c4[nH]c5ccccc5c4C[C@@]4(O)[C@@H](C2)N(CC2CC2)CC[C@]314 [NTI, naltrindole hydrochloride]
C57BL/6 mice [2]; 10 or 15 mg/kg s.c.
  ethanol consumption: did not alter
  ethanol preference: did not alter

## O=C1CC[C@@]2(O)[C@H]3Cc4ccc(O)c5c4[C@@]2(CCN3CC2CC2)[C@H]1O5 [NTX, naltrexone hydrochloride]
[3]
  ethanol consumption: decrease ethanol consumption
[4]
  ethanol consumption: decrease ethanol consumption
C57BL/6 mice [2]; 1.5 mg/kg s.c., 30 min before 4 hour 2-bottle choice
  ethanol consumption: decrease in ethanol consumption
C57BL/6 mice [2]
  ethanol consumption (drinking behavior): only moderate effects

## CN1CCC2(c3cccc(O)c3)Cc3nc4ccccc4cc3CC2C1 (stereo not drawn) [TAN-67, 2-methyl-4 alpha alpha-(3-hydroxyphenyl)-1,2,3,4,4a,5,12,12 alpha alpha-octahydro-quinolino[2,3,3,-g]isoquinoline]
C57BL/6 mice [5]
  sucrose intake: neither TAN-67 [F(1,16)=0.057, p=0.81] nor NTB [F(1,16)=0.62, p=0.44]had an affect
C57BL/6 mice [6]; 25 mg/kg s.c.
  locomotor activity compared to vehicle treated animals: did not show any significant difference
[7]
  rewarding by itself: not rewarding
C57BL/6 mice [2]; 12.5 mg/kg s.c. alone
  ethanol consumption: no effect
C57BL/6 mice [2]; dose dependence, s.c.
  ethanol consumption: dose-dependent decrease
  ethanol preference: dose-dependent decrease

## COC(=O)/C=C/C(=O)N[C@@H]1CC[C@@]2(O)[C@H]3Cc4ccc(O)c5c4[C@@]2(CCN3CC2CC2)[C@H]1O5 [beta-FNA, β-funaltrexamine]
[8]
  drinking: decrease their drinking

## CN1CC[C@]23c4c5ccc(O)c4O[C@H]2[C@@H](O)C=C[C@H]3[C@H]1C5 [morphine]
DOR
  DOR expression in the VTA: increases
[9]
  electrically evoked GABA release on activating DOR1: inhibits electrically evoked GABA release

## (2-D-penicillamine, 5-D-penicillamine)-enkephalin (DPDPE) (peptide)
[10]
  saturating dose for inhibition of evoked IPSCs (dose-response in the presence of 1 µM CTAP): 1 µM

## Naltriben mesylate [NTB]
C57BL/6 mice [5]
  sucrose intake: neither TAN-67 [F(1,16)=0.057, p=0.81] nor NTB [F(1,16)=0.62, p=0.44]had an affect
C57BL/6 mice [6]; 6 mg/kg s.c.
  locomotor activity compared to vehicle treated animals: did not show any significant difference
C57BL/6 mice [2]
  ethanol consumption (drinking behavior): no effect
C57BL/6 mice [2]; dose dependence, s.c.
  ethanol consumption: dose dependently decreased
  ethanol preference: dose dependently decreased

## TIPP-ψ (peptide)
[10]
  evoked IPSC amplitude, decrease from baseline, antagonist alone (n=3): 6.8%
  spontaneous IPSC amplitude, decrease, antagonist alone (n=2): 2.6%
  spontaneous IPSC frequency, decrease, antagonist alone (n=2): 8.6%
